In patent US20070203225A1, “METHOD OF INCREASING ENDOGENOUS ADIPONECTIN PRODUCTION AND LEPTIN PRODUCTION” (priority 2001, published 2007):
“Also recorded” adds a separate entry of the source.

What was measured:
Type in all cases: cell-based
cultured rat adipocytes = assay: Adiponectin secretion by isolated cultured rat adipocytes over 96 h
Procedure: Several studies have reported that thiazolidenediones (TZDs), agonists of PPARγ, increase adiponectin expression and circulating levels in animals (Maeda, 2001; Yamauchi, 2001a; Ye, 2003). TZD (10 μM Troglitazone) stimulated of adiponectin secretion from cultured rat adipocytes from 3 different depots (n=6). Mesenteric fat produced the largest amount of adiponectin over 96 hours in culture. (FIG. 5A). Adiponectin secretion from both the control- and TZD-treated adipocytes was well correlated with the glucose utilization (control, r=0.79; p<0.001); (TZD-treated, r=0.84, p=<0.0001, FIG. 5B) showing that, similar to leptin production, glucose metabolism also is involved in the regulation of adiponectin production by adipocytes.
Insulin increased adiponectin production from 3 different fat depots, however as in the experiments with troglitazone, the mesenteric depot produced the most adiponectin (FIG. 6B). Like leptin, both basal and insulin-stimulated adiponectin secretion was highly correlated to glucose utilization (r=0.91, p<0.0001) (FIG. 6C), and inversely related to the proportion of glucose metabolized to lactate (r=−0.81, p<0.0001) (FIG. 6D).
Also paralleling the regulation of leptin, adiponectin secretion by isolated cultured adipocytes was increased during 96 h culture by inhibitors of PDH-K. DTNB (100 μM) increased adiponectin secretion by 40% (p<0.03, n=6, FIG. 7A). DCA (2 mM) increased adiponectin secretion by 23% (p<0.025, n=6, FIG. 7B). The increase in adiponectin induced by DTNB was highly correlated with glucose utilization (r=0.95, p<0.004). Furthermore in adipocytes transfected with antisense directed at PDH-K, adiponectin secretion was stimulated by 24.3±8.4%, p<0.05, n=7, FIG. 7C).
Cell isolation/preparation: Adipocytes are prepared from epididymal fat pads from male Sprague-Dawley rats weighing 300-600 g. Epididymal fat depots are resected from halothane anesthetized rats under aseptic conditions and adipocytes are isolated by collagenase digestion by the Rodbell method (Rodbell M. Metabolism of isolated fat cells. I. Effects of hormones on glucose metabolism and lipolysis. J Biol Chem. 1964; 239: 375-380), with minor modifications as previously described (Mueller W M, Gregoire F M, Stanhope K L, Mobbs C V, Mizuno T M, Warden C H, Stem J S, Havel P J. Evidence that glucose metabolism regulates leptin secretion from isolated adipocytes. Endocrinology 139: 551-558, 1998; Mueller W M, Stanhope K L, Gregoire F, Evans J L, Havel P J. Effects of metformin and vanadium on leptin secretion from cultured rat adipocytes. Obesity Res. 8: 530-539, 2000; Medina E A, Stanhope K L, Mizuno T M, Mobbs C V, Gregoire F, Hubbard N E, Erickson K L, Havel P J. Effects of tumor necrosis factor alpha on leptin secretion and gene expression: relationship to changes of glucose metabolism in isolated rat adipocytes. Int J Obes Relat Metab Disord. 23: 896-903, 1999.). The isolated adipocytes are then incubated for 30 minutes at 37 C before being plated and cultured on Matrigel-coated plates.
Adipocyte Culture: Adipocytes are maintained in culture anchored to a basement membrane matrix (Matrigel, Becton Dickinson, Franklin Lakes, N.J.) or collagen from Cohesion Technologies, (Palo Alto, Calif.). […]

isolated rat adipocytes = assay: Glucose oxidation: incorporation of 14C-glucose into CO2 by isolated rat adipocytes
Procedure: Substrate Oxidation: Oxidation is measured using a modification of the method of Rodbell (Rodbell, 1964) and a modification of the cell culture system described by Bottcher and Furst (Bottcher, 1996). Briefly, adipocytes are isolated, counted and sized as previously described. Adipocytes are plated as described except they are placed in a sterile 20 ml scintillation vial instead of a well. Two ml of treatment media containing [U-^14C]-substrate (0.3 uCi/ml; glucose, fatty acids, malate, fumarate, pyruvate) is added to the vials. The vials are filled with 95% O2-5% CO2 gas and capped with rubber stoppers fitted with a hanging center well. Each well contains a 2×8 cm strip of Whatman No. 1 paper. Vials are maintained at 37° C. for 48 hr. After 48 hr, a sample of media is removed from each vial using a 4 inch, 23 gauge needle. Using another syringe and 23 gauge needle, 200 ul of sodium benzethonium is placed onto the paper strip and hanging well to capture CO2. Concentrated sulfuric acid is added to the vial in order to lyse cells and liberate all CO2 from the collagen matrix. After 24 hours, the hanging well and paper are transferred to another vial containing scintillation fluid and counted. The data are expressed as % DPM recovered as CO2 of the total DPM remaining in the media at 48 hours and as micromoles of substrate oxidized over time.

leptin promoter = assay: Leptin promoter luciferase construct transfected into 3T3-L1 cells

| Compound | increase of adiponectin secretion (cultured rat adipocytes; DTNB 100 μM, DCA 2 mM, 96 h culture, n=6) | effect on adiponectin secretion (in words) (cultured rat adipocytes; PDH kinase inhibitors DTNB and DCA) | effect on absolute and proportional glucose oxidation, labeled glucose into CO2 (in words) (isolated rat adipocytes; DTNB (50 μM in FIG. 20) and DCA (2 mM), percent of control) | adiponectin secretion, 96 hr total (cultured rat adipocytes; 1.6 nM insulin, control 179.9±35.3 ng, n=6) | effect on adiponectin secretion (in words) (cultured rat adipocytes; insulin (1.6 nM), 96 hour culture) | effect on activity of control plasmid (in words) (leptin promoter; insulin 10 nM, 2-DG 10 mg/dl) | increase of leptin promoter activity (leptin promoter; insulin 0.1 to 10 nM, n=2 each) | effect on leptin promoter activity (in words) (leptin promoter; insulin 0.1 to 10 nM, 2-DG 10 mg/dl on basal and insulin-stimulated (10 nM) activity) | increase of proportional oxidation of glucose (isolated rat adipocytes; insulin 1.6 nM) | effect on amount of glucose oxidized to CO2 (in words) (isolated rat adipocytes; insulin 1.6 nM, n=18) |
| --- | --- | --- | --- | --- | --- | --- | --- | --- | --- | --- |
| O=C(O)c1cc(SSc2ccc([N+](=O)[O-])c(C(=O)O)c2)ccc1[N+](=O)[O-] [DTNB, 5,5′-Dithiobis(2-nitrobenzoate)] | 40% | increase | increase |  |  |  |  |  |  |  |
| insulin |  |  |  | 312.3 ± 44 ng | significant increase; also recorded: increases | unaffected | 3-6 fold | increases | 43.6±10.6% | doubles; also recorded: markedly increases |
